For series [1], the system named is exhaled nitric oxide. The following applies: inhaled L-arginine; healthy and asthmatic subjects; cited from earlier work.
Series [2] relates to exhaled nitric oxide / pulmonary function. The following applies: cystic fibrosis patients, cited from earlier work.
The conditions of series [3]: single oral dose; cystic fibrosis and healthy subjects; cited from earlier work.
The conditions of series [4]: inhalation of arginine solution; cystic fibrosis patients; cited from earlier work.
In series [5] the test system is isolated lungs of chronically hypoxic newborn pigs. The settings on record: perfusion of isolated lungs; cited from earlier work.
The nature of series [6]: Storage stability of ready to use formulation in LDPE vials. The format is physicochemical. The following applies: room temperature; LDPE vials covered with aluminum overwrap. The protocol:
In alternative, the liquid form of the highly concentrated citrulline or another nitric oxide precursor may also be conveniently supplied as a ready to use formulation stored and supplied in 1 mL “Blow-fill-Seal” vial, made of plastic polyethylene material, such as low density polyethylene (LDPE). The selected material for such ready to use formulation prevents absorption of the active component onto the plastic walls of the vial, which is a common occurrence with other plastic materials. The 1 mL fill volume of the vial provides an exact amount of active component that is safe and efficacious for the patient convenience provided, of course, that the therapeutically effective amount of the active component can be supplied in 1 mL dilution. In the above described type of vials covered with an aluminum overwrap, citrulline or nitric oxide precursors for inhalation are stable for at least 9 months and 12 months, respectively, at room temperature. There is no loss of strength under these conditions. At accelerated conditions where the vials are exposed to a temperature of 40° C. and 75% relative humidity, all formulations for extended shelf-life will be shown to retain their full activity for at least 6 months and preferably or one year.

With `N=C(N)NCCC[C@H](N)C(=O)O` [L-arginine], in series [1], the exhaled nitric oxide result is recorded as “increased exhaled nitric oxide in a dose-dependent fashion” and the “time of maximum effect on exhaled nitric oxide” value was 60 min. Besides, in series [2] (after single inhalation), the “plasma amino acid concentration of L-arginine” value is on record as “did not change significantly over time”. Moreover, in series [2] (single inhalation), the FEV1 result is reported as “sustained improvement of FEV1” and the “exhaled nitric oxide concentrations” value is “significantly increasing exhaled nitric oxide concentrations”. Besides, the “plasma L-arginine concentration” value in series [3] is reported as “significant increase of plasma L-arginine concentration”. Besides, the “adverse effects of inhalation therapy” value in series [4] is “cough, airway inflammation and severe deterioration of the patients general conditions”. In series [5], the nitric oxide production entry was “increase of nitric oxide production”.
Take `NC(=O)NCCC[C@H](N)C(=O)O` [citrulline, L-(+)-2-amino-5-ureidovaleric acid]: in series [6], the “stability (shelf-life)” value was “at least 9 months”.
